Assay results: PMC7844219, “Antifibrotic effect of novel neutrophil gelatinase-associated lipocalin inhibitors in cardiac and renal disease models” (Scientific Reports, 2021)

Assays:
hNGAL [1] = target: T1, hNGAL (Homo sapiens, UniProt P80188); test: hNGAL-induced IL6 and Col I secretion in human cardiac fibroblasts (ELISA); type: cell-based; set-up: % inhibition versus hNGAL on IL-6 secretion: concentration or dose not given beside the values; conditions: for IL-6 secretion: hNGAL-treated human cardiac fibroblasts, mean ± SEM
T1 construct: purchased R&D Systems
Procedure: (§1) Primary human cardiac fibroblasts (HCF) were obtained from Promocell (Heidelberg, Germany) and maintained in Fibroblast Media 3 following manufacturer’s instructions (Promocell). Cells were used between passages 5 and 7. Cells were stimulated with recombinant hNGAL (500 ng/mL, R&D Systems) or with TGFβ (10 ng/mL, R&D Systems) for 24 h. To assess cell proliferation the MTT test was used following provider’s instructions (Roche). For protein analysis. Primary Mouse Kidney Fibroblasts (MKF) were isolated from Wild Type (WT) mice. Briefly, 8 weeks old mice were sacrificed by cervical dislocation and kidneys were cleaned and rinsed in cold DPBS (Dulbecco's Phosphate-Buffered Saline). The renal cortex was minced and incubated in Dulbecco’s modified eagle medium/Nutrient mixture F-12 (DMEM/F12, Sigma) containing 1 mg/mL collagenase A (Roche) during 25 min at 37 °C. The digestion was inactivated by adding culture medium (DMEM/F12 + 10% FBS) then the cell suspension was passed through a 100-μm cell strainer. After centrifugation, the pellet (containing MKF) was diluted with culture medium then plated in 75 cm^2 culture flask. After 24 h MKF were washed with DPBS before replacement of fresh culture medium. Thereafter, culture medium was changed every 48 h. Once 70–80% confluent, MKF were trypsinized and plated in 12 or 6-well plates. For experimental use, MKF were starved with culture medium containing only 3% FBS. MKF were treated with mNGAL (500 ng/mL, R&D Systems) or with TGFβ (10 ng/mL, R&D Systems) for 6 h for gene expression analysis.
IL6 and collagen type I concentrations were measured in cardiac tissue and cell supernatants by ELISA according to the manufacturer's instructions (R&D Systems).

hNGAL [2] = target: T1, hNGAL; test: hNGAL-induced intracellular profibrotic protein levels in human cardiac fibroblasts (Western blot); type: cell-based; set-up: % inhibition versus hNGAL on Col I protein level / % inhibition versus hNGAL on Col III protein level / % inhibition versus hNGAL on Fibronectin protein level / % inhibition versus hNGAL on Galectin 3 protein level: concentration or dose not given beside the values
Procedure: as §1
Total protein aliquots of 20 μg were prepared from cardiac homogenates and HCF and electrophoresed on SDS polyacrylamide gels and transferred to Hybond-c Extra nitrocellulose membranes (Amersham Biosciences). Membranes were incubated with primary antibodies for: Collagen I (Santa Cruz; dilution 1:500), Collagen type III (Santa Cruz; dilution 1:500), fibronectin (Millipore, 1:500), Galectin-3 (Thermo, 1:1000), α-SMA (Sigma, 1:1000), CTGF (Santa Cruz, 1:200), CD68 (Abcam, 1:500), CD80 (Santa Cruz, 1:500), CD86 (Santa Cruz, 1:500). […] After densitometric analyses, optical density values were expressed as arbitrary units. Results are expressed as an n-fold increase over the values of the control group in densitometric arbitrary units.

Chemical stability = type: physicochemical; conditions: Table S5
Procedure: (§2) Several parameters have been evaluated to determine ADME-Tox profile of the compounds. Two specific toxicity assays have been performed to assess hepatoxicity and cardiotoxicity. Hepatotoxicity was evaluated in isolated hepatocytes from swiss mice and determined by the thiazolyl blue tetrazolium bromide colorimetric assay (sigma, St Louis, MO, USA). Cardiotoxicity was evaluated using the commercially available Predictor hERG fluorescence polarization kit (Thermo Fisher Scientific, Illinois, USA). Several absorption, distribution, metabolism, and excretion (ADME) assays have been carried out. The following experiments were undertaken: stability in human microsomes, binding to human plasma protein, and CYP3A4 inhibition assay (Vivid CYP3A4 assay, Thermo Fisher Scientific, Illinois, USA). Physico-chemical properties were also assessed such as aqueous solubility and chemical stability.

CYP3A4 = target: T2, CYP3A4 (Homo sapiens, UniProt P08684); test: CYP3A4 inhibition assay (Vivid CYP3A4 assay); type: in vitro ADME
T2 construct: purchased Thermo Fisher Scientific
Procedure: as §2

hNGAL [3] = target: T1, hNGAL; test: Cell proliferation (MTT) in hNGAL-treated human cardiac fibroblasts; type: cell-based
Procedure: as §1
Cell proliferation was assessed using the MTT Proliferation Assay (Sigma).

hERG channel = target: T3, hERG channel (Homo sapiens, UniProt Q12809); test: Cardiotoxicity, Predictor hERG fluorescence polarization kit; type: binding
T3 construct: purchased Thermo Fisher Scientific
Procedure: as §2

[4] = tested on: isolated hepatocytes from swiss mice; test: Hepatotoxicity, thiazolyl blue tetrazolium bromide (MTT) colorimetric assay; type: cell-based, mouse
Procedure: as §2

Aqueous solubility = type: physicochemical
Procedure: as §2

human plasma protein = test: Binding to human plasma protein; type: in vitro ADME
Procedure: as §2

[5] = Table S4, second generation compounds and parents, Control 1.00, NGAL 1.45
[6] = Table S4, second generation compounds and parents, human cardiac fibroblasts
[7] = 10 µM, human cardiac fibroblasts, Fig. 1C
[8] = Table S2, human cardiac fibroblasts

T1 sequence (P80188 21-198): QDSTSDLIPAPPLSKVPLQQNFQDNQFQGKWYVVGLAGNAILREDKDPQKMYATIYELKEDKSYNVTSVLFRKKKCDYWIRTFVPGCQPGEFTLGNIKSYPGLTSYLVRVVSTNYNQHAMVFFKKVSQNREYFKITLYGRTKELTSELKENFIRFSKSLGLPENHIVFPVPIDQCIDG
T2 sequence (P08684 whole entry): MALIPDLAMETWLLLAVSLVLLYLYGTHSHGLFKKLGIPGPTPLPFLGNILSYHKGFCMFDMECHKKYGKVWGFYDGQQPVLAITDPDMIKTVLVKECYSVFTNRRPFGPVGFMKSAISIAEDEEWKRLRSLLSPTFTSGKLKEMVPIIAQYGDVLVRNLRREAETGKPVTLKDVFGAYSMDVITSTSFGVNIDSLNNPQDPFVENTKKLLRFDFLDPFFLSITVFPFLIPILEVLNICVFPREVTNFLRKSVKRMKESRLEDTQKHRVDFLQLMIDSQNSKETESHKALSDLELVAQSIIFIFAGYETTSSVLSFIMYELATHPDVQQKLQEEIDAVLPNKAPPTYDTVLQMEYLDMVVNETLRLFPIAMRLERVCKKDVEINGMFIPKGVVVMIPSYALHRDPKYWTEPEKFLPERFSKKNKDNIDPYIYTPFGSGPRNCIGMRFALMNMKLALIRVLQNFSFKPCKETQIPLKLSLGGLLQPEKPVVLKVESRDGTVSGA
T3 sequence (Q12809 whole entry): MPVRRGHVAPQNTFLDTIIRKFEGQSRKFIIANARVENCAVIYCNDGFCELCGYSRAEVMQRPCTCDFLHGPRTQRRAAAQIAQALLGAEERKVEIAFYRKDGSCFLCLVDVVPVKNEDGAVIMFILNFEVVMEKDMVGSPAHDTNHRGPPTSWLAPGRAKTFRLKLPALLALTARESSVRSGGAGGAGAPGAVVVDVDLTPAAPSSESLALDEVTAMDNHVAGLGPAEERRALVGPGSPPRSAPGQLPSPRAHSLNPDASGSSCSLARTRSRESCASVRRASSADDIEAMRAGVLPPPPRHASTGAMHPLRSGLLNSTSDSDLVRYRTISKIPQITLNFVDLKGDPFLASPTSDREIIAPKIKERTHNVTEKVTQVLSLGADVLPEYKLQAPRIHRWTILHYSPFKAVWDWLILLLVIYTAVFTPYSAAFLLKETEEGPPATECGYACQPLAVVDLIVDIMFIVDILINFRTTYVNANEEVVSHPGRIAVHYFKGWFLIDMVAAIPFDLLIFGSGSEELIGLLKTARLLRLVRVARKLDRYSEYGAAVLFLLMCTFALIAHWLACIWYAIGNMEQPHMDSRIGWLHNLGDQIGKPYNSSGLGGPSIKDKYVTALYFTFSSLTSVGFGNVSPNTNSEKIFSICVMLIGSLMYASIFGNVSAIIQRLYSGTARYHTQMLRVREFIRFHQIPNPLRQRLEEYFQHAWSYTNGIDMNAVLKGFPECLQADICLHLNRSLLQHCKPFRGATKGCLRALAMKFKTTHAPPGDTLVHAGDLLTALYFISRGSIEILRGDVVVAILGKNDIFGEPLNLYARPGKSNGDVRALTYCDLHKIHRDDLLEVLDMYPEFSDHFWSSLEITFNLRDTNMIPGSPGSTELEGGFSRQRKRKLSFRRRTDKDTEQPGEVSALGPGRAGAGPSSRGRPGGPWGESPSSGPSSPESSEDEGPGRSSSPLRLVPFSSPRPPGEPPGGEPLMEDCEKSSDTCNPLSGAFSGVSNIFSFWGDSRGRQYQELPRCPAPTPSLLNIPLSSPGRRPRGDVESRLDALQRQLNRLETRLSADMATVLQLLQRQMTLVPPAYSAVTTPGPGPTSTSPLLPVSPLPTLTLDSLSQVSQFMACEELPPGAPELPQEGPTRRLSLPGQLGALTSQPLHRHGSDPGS

Cc1cc(C)n2cc(CSc3nc4ccccc4[nH]3)nc2n1 [GPZ743042]
IL-6 secretion (hNGAL [1]; [5]): 0.94 ± 0.03
% inhibition versus hNGAL on IL-6 secretion (hNGAL [1]; [6]): 35.2%

CC(=O)c1cccc(S(=O)(=O)NCc2ccccc2Cn2cccn2)c1 [GPZ505884]
IL-6 secretion (hNGAL [1]; [5]): 0.83± 0.02
% inhibition versus hNGAL on IL-6 secretion (hNGAL [1]; [6]): 42.8%

N#Cc1cccc(S(=O)(=O)NCc2cccc(-n3cccn3)c2)c1 [GPZ778195]
IL-6 secretion (hNGAL [1]; [5]): 0.88± 0.04
% inhibition versus hNGAL on IL-6 secretion (hNGAL [1]; [6]): 39.3%

CCS(=O)(=O)c1ccc2oc(SCc3cn4c(C)cc(C)nc4n3)nc2c1 [GPZ058225]
Increase in IL6 secretion induced by NGAL (hNGAL [1]; 1 µM, human cardiac fibroblasts, Fig. S3): did not prevent
NGAL-induced Col I secretion, in words (hNGAL [1]; [7]): fully inhibited
NGAL-induced IL6 secretion, in words (hNGAL [1]; [7]): fully inhibited
IL-6 secretion (hNGAL [1]; Table S1, first generation compounds, Control 1.0 ± 0.1, NGAL 2.21 ± 0.2): 0.99 ± 0.3
% inhibition versus hNGAL on IL-6 secretion (hNGAL [1]; Table S1, first generation compounds, human cardiac fibroblasts): 55.2%
IL-6 secretion (hNGAL [1]; [5]): 0.72 ± 0.02
% inhibition versus hNGAL on IL-6 secretion (hNGAL [1]; [6]): 50.4%
Inhibitor effect on hNGAL-induced IL6 secretion, in words (hNGAL [1]; human cardiac fibroblasts, text on Tables S1 and S4): important inhibitor effect
hNGAL-induced expression of intracellular profibrotic proteins (Col I, Col III, fibronectin, Gal3), in words (hNGAL [2]; 10 µM, human cardiac fibroblasts, Fig. 1D): blocked
Col III synthesis (protein level) (hNGAL [2]; Table S2, hNGAL-treated human cardiac fibroblasts, Control 1.0, NGAL 1.67, mean ± SEM): 1.05 ± 0.1
Fibronectin synthesis (protein level) (hNGAL [2]; Table S2, hNGAL-treated human cardiac fibroblasts, Control 1.0, NGAL 1.8, mean ± SEM): 0.62 ± 0.1
Col I synthesis (protein level) (hNGAL [2]; Table S2, hNGAL-treated human cardiac fibroblasts, Control 1.0, NGAL 2.03, mean ± SEM): 1.27 ± 0.1
Galectin-3 synthesis (protein level) (hNGAL [2]; Table S2, hNGAL-treated human cardiac fibroblasts, Control 1.0, NGAL 2.1, mean ± SEM): 1.0 ± 0.2
% inhibition versus hNGAL on Col I protein level (hNGAL [2]; [8]): 37.5%
% inhibition versus hNGAL on Col III protein level (hNGAL [2]; [8]): 37.1%
% inhibition versus hNGAL on Fibronectin protein level (hNGAL [2]; [8]): 65.5%
% inhibition versus hNGAL on Galectin 3 protein level (hNGAL [2]; [8]): 52.3%
Chemical Stability % (Chemical stability): 92.2%
CYP3A4 enzyme activity inhibited in a competition assay (CYP3A4): 32%
CyP 3A4 Inhibition % (100= no inhibition) (CYP3A4; Table S5): 68.07 ± 1.52%
hNGAL-induced cell proliferation, in words (hNGAL [3]; 10 µM, Fig. 1E): blocked
Dose–response on proliferation induced by NGAL (hNGAL [3]; Fig. S2): able to block the proliferative effects of NGAL at 1 and 10 µM, but not at lower concentrations
Cardiotoxicity (hERG predictor assay), in words (hERG channel): did not block the hERG channel
Hepatotoxicity (MTT) [4]: > 0.1 mM
Hepatotoxicity ([4]; Table S5, MTT): > 100 µM
Solubility in aqueous buffers, in words (Aqueous solubility): mild solubility problems
Solubility test (Aqueous solubility): 63%
Aquous solubility % (Aqueous solubility; Table S5): 63.46%
Plasma protein binding (PPB), in words (human plasma protein): within an acceptance range
hPPB% (human plasma protein; Table S5, human plasma protein binding): 89.11%

CC(=O)c1cccc(S(=O)(=O)NCc2ccccc2-c2ccc(CN(C)C)cc2)c1 [GPZ642292]
IL-6 secretion (hNGAL [1]; [5]): 0.64± 0.02
% inhibition versus hNGAL on IL-6 secretion (hNGAL [1]; [6]): 55.9%

CC(=O)c1cccc(S(=O)(=O)NCc2ccccc2-c2ccsc2)c1 [GPZ863205]
IL-6 secretion (hNGAL [1]; [5]): 0.93± 0.03
% inhibition versus hNGAL on IL-6 secretion (hNGAL [1]; [6]): 35.9%

CC(=O)c1ccc(S(=O)(=O)Nc2ccccc2-n2cccn2)cc1 [GPZ478519]
IL-6 secretion (hNGAL [1]; [5]): 0.69± 0.02
% inhibition versus hNGAL on IL-6 secretion (hNGAL [1]; [6]): 52.4%

O=C(Nc1nc2cc(F)c(F)cc2s1)c1cn2cccnc2n1 [GPZ278618]
IL-6 secretion (hNGAL [1]; [5]): 0.86± 0.02
% inhibition versus hNGAL on IL-6 secretion (hNGAL [1]; [6]): 40.1%

CCN1CCN(Cc2ccccc2CNS(=O)(=O)c2cccc(C(C)=O)c2)CC1 [GPZ913629]
IL-6 secretion (hNGAL [1]; [5]): 0.93± 0.02
% inhibition versus hNGAL on IL-6 secretion (hNGAL [1]; [6]): 35.9%
